US10941157B2, “Pesticidal compositions and uses thereof” (Gilead Apollo, LLC, priority 2015, dated 2021)
In brackets after ≈: the same amount, converted by molar mass. Like-named read-outs stand apart in the source and are kept apart here.

Key:
Format in all cases: cell-based
[1] = tested on: Phytophthora capsici (Pc); assay: In vitro pathogen growth inhibition assay, Pc; conditions: 48 h
Outline: (§1)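 Spores of Dm, Fv and Pc were diluted in 17% V8 liquid medium; Rs used 1.5 mm mycelial plugs in ¼ PDB. Compounds from 2.5 mg/ml DMSO stocks were combined with inoculum, growth was read by OD600 at 24 and 48 h with blank subtraction, and the reported value is the concentration giving ≥90% inhibition.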

[2] = tested on: Collectotrichum graminicola (Cg); assay: In vitro pathogen growth inhibition assay, Cg; conditions: 48 h
Outline: (§2)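 Spores in 17% V8 liquid medium, or 1.5 mm Rs mycelial plugs in ¼ PDB, incubated with compound; final concentration checked by OD600 for precipitation. OD readings at 24 and 48 h, blank-subtracted, plus visual ratings; value is concentration giving ≥90% growth inhibition.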

[3] = tested on: Botrtyis cinerea (Bc); assay: In vitro pathogen growth inhibition assay, Bc; conditions: 48 h
Outline: as §2

[4] = tested on: Fusarium virguliforme (Fv); assay: In vitro pathogen growth inhibition assay, Fv
Outline: as §1

[5] = tested on: Diplodia maydis (Dm); assay: In vitro pathogen growth inhibition assay, Dm; conditions: Stenocarpella maydis, 48 h
Outline: as §1

[6] = tested on: Rhizoctonia solani (Rs); assay: In vitro pathogen growth inhibition assay, Rs (mycelial plugs); conditions: Rhizoctonia solani, 48 h
Outline: as §1

[7] = tested on: Septoria tritici (St); assay: In vitro pathogen growth inhibition assay, St; conditions: Zymoseptoria tritici, 48 h
Outline: as §2

[8] = tested on: Fusarium moniliforme (Fm); assay: In vitro pathogen growth inhibition assay, Fm; conditions: Fusarium verticillioides
Outline: as §2

[9] = ≥90% inhibition, 48 hours vs 2% DMSO control, read-out: Compound Concentration (ppm) sufficient for ≥90% inhibition of growth, Pc
[10] = ≥90% inhibition, 48 hours vs 2% DMSO control, read-out: Compound Concentration (ppm) sufficient for ≥90% inhibition of growth, Cg
[11] = ≥90% inhibition, 48 hours vs 2% DMSO control, read-out: Compound Concentration (ppm) sufficient for ≥90% inhibition of growth, Bc
[12] = ≥90% inhibition, 48 hours vs 2% DMSO control, read-out: Compound Concentration (ppm) sufficient for ≥90% inhibition of growth, Fv
[13] = ≥90% inhibition, 48 hours vs 2% DMSO control, read-out: Compound Concentration (ppm) sufficient for ≥90% inhibition of growth, Dm
[14] = ≥90% inhibition, mycelial plugs, 48 hours vs 2% DMSO control, read-out: Compound Concentration (ppm) sufficient for ≥90% inhibition of growth, Rs
[15] = ≥90% inhibition, 48 hours vs 2% DMSO control, read-out: Compound Concentration (ppm) sufficient for ≥90% inhibition of growth, St
[16] = ≥90% inhibition, 48 hours vs 2% DMSO control, read-out: Compound Concentration (ppm) sufficient for ≥90% inhibition of growth, Fm
[17] = ≥90% growth inhibition, 48 hours, vs 2% DMSO control, read-out: Compound Concentration (ppm) sufficient for ≥90% inhibition of Pc
[18] = ≥90% growth inhibition, 48 hours, vs 2% DMSO control, read-out: Compound Concentration (ppm) sufficient for ≥90% inhibition of Cg
[19] = ≥90% growth inhibition, 48 hours, vs 2% DMSO control, read-out: Compound Concentration (ppm) sufficient for ≥90% inhibition of Bc
[20] = ≥90% growth inhibition, 48 hours, vs 2% DMSO control, read-out: Compound Concentration (ppm) sufficient for ≥90% inhibition of Fv
[21] = ≥90% growth inhibition, 48 hours, vs 2% DMSO control, read-out: Compound Concentration (ppm) sufficient for ≥90% inhibition of Dm
[22] = ≥90% growth inhibition, mycelial plugs, 48 hours, vs 2% DMSO control, read-out: Compound Concentration (ppm) sufficient for ≥90% inhibition of Rs
[23] = ≥90% growth inhibition, 48 hours, vs 2% DMSO control, read-out: Compound Concentration (ppm) sufficient for ≥90% inhibition of St
[24] = ≥90% growth inhibition, 48 hours, vs 2% DMSO control, read-out: Compound Concentration (ppm) sufficient for ≥90% inhibition of Fm

Structure (SMILES)	IC90 [1, 9] [µg/mL]	IC90 [2, 10] [µg/mL]	IC90 [3, 11] [µg/mL]	IC90 [4, 12] [µg/mL]	IC90 [5, 13] [µg/mL]	IC90 [6, 14] [µg/mL]	IC90 [7, 15] [µg/mL]	IC90 [8, 16] [µg/mL]	IC90 [1, 17] [µg/mL]	IC90 [2, 18] [µg/mL]	IC90 [3, 19] [µg/mL]	IC90 [4, 20] [µg/mL]	IC90 [5, 21] [µg/mL]	IC90 [6, 22] [µg/mL]	IC90 [7, 23] [µg/mL]	IC90 [8, 24] [µg/mL]	other results
COCCO[C@@H](Cn1c(=O)n(C(C)C(=O)N2CCCC2)c(=O)c2c(C)c(-n3nccn3)sc21)c1cc(F)ccc1OC (some centres unmarked) [Compound I-139]	50 (≈ 83.2 µM)	10 (≈ 16.6 µM)	2 (≈ 3.33 µM)	0.4 (≈ 0.666 µM)	10 (≈ 16.6 µM)	2 (≈ 3.33 µM)	50 (≈ 83.2 µM)	0.4 (≈ 0.666 µM)	–	–	–	–	–	–	–	–	–
COc1ccc(F)cc1[C@H](Cn1c(=O)n(C(C)(C)C(=O)N2CC=CC2)c(=O)c2c(C)c(-n3nccn3)sc21)OC(C)C [Compound I-067]	> 50	0.08 (≈ 0.134 µM)	0.4 (≈ 0.67 µM)	0.4 (≈ 0.67 µM)	0.08 (≈ 0.134 µM)	0.4 (≈ 0.67 µM)	≥ 2	0.08 (≈ 0.134 µM)	–	–	–	–	–	–	–	–	–
Cc1c(-n2cccn2)sc2c1c(=O)n(C(C)(C)C(=O)NC(C)C)c(=O)n2CCc1cc(F)ccc1OCCC#N [Compound I-336]	–	–	–	–	–	–	–	–	–	–	–	–	–	–	–	–	IC90 ([1]; concentration sufficient to ≥90% inhibition of growth, 48 hours vs 2% DMSO control, read-out: Compound Concentration (ppm) for ≥90% inhibition, Pc): > 50 µg/mL; IC90 ([2]; concentration sufficient to ≥90% inhibition of growth, 48 hours vs 2% DMSO control, read-out: Compound Concentration (ppm) for ≥90% inhibition, Cg): > 50 µg/mL; IC90 ([3]; concentration sufficient to ≥90% inhibition of growth, 48 hours vs 2% DMSO control, read-out: Compound Concentration (ppm) for ≥90% inhibition, Bc): 50 µg/mL (≈ 88.2 µM); IC90 ([4]; concentration sufficient to ≥90% inhibition of growth, 48 hours vs 2% DMSO control, read-out: Compound Concentration (ppm) for ≥90% inhibition, Fv): 10 µg/mL (≈ 17.6 µM); IC90 ([5]; concentration sufficient to ≥90% inhibition of growth, 48 hours vs 2% DMSO control, read-out: Compound Concentration (ppm) for ≥90% inhibition, Dm): > 50 µg/mL; IC90 ([6]; concentration sufficient to ≥90% inhibition of growth, 48 hours vs 2% DMSO control, read-out: Compound Concentration (ppm) for ≥90% inhibition, Rs): > 50 µg/mL; IC90 ([7]; concentration sufficient to ≥90% inhibition of growth, 48 hours vs 2% DMSO control, read-out: Compound Concentration (ppm) for ≥90% inhibition, St): > 50 µg/mL; IC90 ([8]; concentration sufficient to ≥90% inhibition of growth, 48 hours vs 2% DMSO control, read-out: Compound Concentration (ppm) for ≥90% inhibition, Fm): 10 µg/mL (≈ 17.6 µM)
COc1ccc(F)cc1[C@H](Cn1c(=O)n([C@@H](C)C(=O)NC(C)C)c(=O)c2c(C)c(-n3nccn3)sc21)OCCC#N [Compound I-197]	–	–	–	–	–	–	–	–	> 50	10 (≈ 17.1 µM)	0.4 (≈ 0.685 µM)	≥ 2	10 (≈ 17.1 µM)	0.4 (≈ 0.685 µM)	≥ 50	0.4 (≈ 0.685 µM)	–
COc1ccccc1[C@H](Cn1c(=O)n(C(C)(C)C(=O)N2CC(O)C2)c(=O)c2c(C)c(-n3nccn3)sc21)OC1CCOCC1 [Compound I-156]	> 50	50 (≈ 80 µM)	10 (≈ 16 µM)	10 (≈ 16 µM)	50 (≈ 80 µM)	10 (≈ 16 µM)	> 50	2 (≈ 3.2 µM)	–	–	–	–	–	–	–	–	–
COc1ccc(F)cc1[C@](C)(Cn1c(=O)n(C(C)(C)C(=O)NC(C)C)c(=O)c2c(C)c(-n3nccn3)sc21)OCCC#N [Compound I-273]	–	–	–	–	–	–	–	–	> 50	2 (≈ 3.27 µM)	0.4 (≈ 0.654 µM)	0.4 (≈ 0.654 µM)	50 (≈ 81.7 µM)	2 (≈ 3.27 µM)	> 50	0.08 (≈ 0.131 µM)	–
Cc1c(-n2nccn2)sc2c1c(=O)n(C(C)(C)C(=O)NC(C)C)c(=O)n2CCc1cc(F)ccc1OC(C)C [Compound I-338]	–	–	–	–	–	–	–	–	> 50	10 (≈ 18 µM)	2 (≈ 3.59 µM)	0.08 (≈ 0.144 µM)	2 (≈ 3.59 µM)	10 (≈ 18 µM)	> 50	0.08 (≈ 0.144 µM)	–
COc1ccc(F)cc1[C@H](Cn1c(=O)n(C(C)(C)C(=O)NC(C)C)c(=O)c2c(C)c(-n3cccn3)sc21)OCC#N [Compound I-257]	–	–	–	–	–	–	–	–	> 50	2 (≈ 3.43 µM)	2 (≈ 3.43 µM)	0.4 (≈ 0.687 µM)	50 (≈ 85.8 µM)	2 (≈ 3.43 µM)	> 50	0.4 (≈ 0.687 µM)	–
COc1ccc(F)cc1[C@H](Cn1c(=O)n(C(C)(C)C(=O)NC(C)C)c(=O)c2c(C)c(-n3nccn3)sc21)O[C@H]1CC[C@@H](O)CC1 [Compound I-264]	–	–	–	–	–	–	–	–	50 (≈ 77.8 µM)	2 (≈ 3.11 µM)	0.4 (≈ 0.622 µM)	0.4 (≈ 0.622 µM)	2 (≈ 3.11 µM)	0.08 (≈ 0.124 µM)	> 50	0.08 (≈ 0.124 µM)	–
COc1ccccc1[C@H](Cn1c(=O)n(C(C)(C)C(=O)N2CCCCC2)c(=O)c2c(C)c(-n3cccn3)sc21)OC1CCOCC1 [Compound I-117]	> 50	10 (≈ 15.7 µM)	2 (≈ 3.15 µM)	10 (≈ 15.7 µM)	10 (≈ 15.7 µM)	10 (≈ 15.7 µM)	> 50	0.4 (≈ 0.629 µM)	–	–	–	–	–	–	–	–	–
